Reference: ChEMBL document CHEMBL3044825, “Synthesis and in vitro microbial activities of amides of pyridoquinolone” (2011)

How the values were obtained:
Assay type in all cases: functional
Conditions in all cases: read-out: IZ
Candida albicans = assay: Antifungal activity against Candida albicans at 100 ug/ml by cup-plate method
Bacillus subtilis = assay: Antibacterial activity against Bacillus subtilis at 100 ug/ml by cup plate method
Staphylococcus aureus = assay: Antibacterial activity against Staphylococcus aureus at 100 ug/ml by cup-plate method
Pseudomonas aeruginosa = assay: Antibacterial activity against Pseudomonas aeruginosa at 100 ug/ml by cup-plate method
Escherichia coli = assay: Antibacterial activity against Escherichia coli at 100 ug/ml by cup-plate method

Row | SMILES | zone of inhibition at 100 µg/mL (Candida albicans) [mm] | zone of inhibition at 100 µg/mL (Bacillus subtilis) [mm] | zone of inhibition at 100 µg/mL (Staphylococcus aureus) [mm] | zone of inhibition at 100 µg/mL (Pseudomonas aeruginosa) [mm] | zone of inhibition at 100 µg/mL (Escherichia coli) [mm]
1 | O=C(NC(=S)Nc1ccc(O)cc1)c1cn(CCO)c2c(cc(Cl)c3ncccc32)c1=O | 5 | 11 | 12 | 11 | 12
2 | O=C(Nc1ccc(S(=O)(=O)Nc2cccc(Cl)c2)cc1)c1cn(CCO)c2c(cc(O)c3ncccc32)c1=O | 3 | 9 | 8 | 8 | 9
3 | Cc1ccccc1NC(=O)c1cn(CCO)c2c(cc(Cl)c3ncccc32)c1=O | 0 | 5 | 0 | 4 | 7
4 | O=C(NC(=S)Nc1ccc(O)cc1)c1cn(CCO)c2c(cc(O)c3ncccc32)c1=O | 0 | 7 | 6 | 6 | 6
5 | COc1ccc(NS(=O)(=O)c2ccc(NC(=O)c3cn(CCO)c4c(cc(O)c5ncccc54)c3=O)cc2)cc1 | 4 | 11 | 10 | 8 | 8
6 | O=C(NC(=S)Nc1cccc(Cl)c1)c1cn(CCO)c2c(cc(Cl)c3ncccc32)c1=O | 3 | 10 | 8 | 9 | 9
7 | Cc1cccc(NC(=O)c2cn(CCO)c3c(cc(Cl)c4ncccc43)c2=O)c1 | 4 | 9 | 10 | 10 | 10
8 | COc1ccc(NC(=S)NC(=O)c2cn(CCO)c3c(cc(O)c4ncccc43)c2=O)cc1 | 2 | 6 | 8 | 8 | 8
9 | Cc1ccc(NC(=S)NC(=O)c2cn(CCO)c3c(cc(Cl)c4ncccc43)c2=O)cc1 | 0 | 6 | 6 | 0 | 6
10 | O=C(Nc1ccc(S(=O)(=O)Nc2ccccc2)cc1)c1cn(CCO)c2c(cc(Cl)c3ncccc32)c1=O | 2 | 10 | 8 | 7 | 6
11 | O=C(Nc1ccc(S(=O)(=O)Nc2ccc([N+](=O)[O-])cc2)cc1)c1cn(CCO)c2c(cc(O)c3ncccc32)c1=O | 4 | 11 | 10 | 10 | 12
12 | N#Cc1cc([N+](=O)[O-])ccc1NS(=O)(=O)c1ccc(NC(=O)c2cn(CCO)c3c(cc(Cl)c4ncccc43)c2=O)cc1 | 2 | 9 | 8 | 8 | 8
13 | O=C(NC(=S)Nc1cccc(O)c1)c1cn(CCO)c2c(cc(O)c3ncccc32)c1=O | 3 | 10 | 8 | 7 | 9
14 | O=C(Nc1cccc(Cl)c1)c1cn(CCO)c2c(cc(Cl)c3ncccc32)c1=O | 3 | 9 | 8 | 7 | 7
15 | O=C(Nc1ccc(S(=O)(=O)Nc2ccc([N+](=O)[O-])cc2)cc1)c1cn(CCO)c2c(cc(Cl)c3ncccc32)c1=O | 3 | 10 | 9 | 9 | 11
16 | Cc1ccc(C)c(NC(=O)c2cn(CCO)c3c(cc(Cl)c4ncccc43)c2=O)c1 | 0 | 9 | 8 | 8 | 10
17 | O=C(Nc1ccc(S(=O)(=O)Nc2ccccc2)cc1)c1cn(CCO)c2c(cc(O)c3ncccc32)c1=O | 3 | 8 | 9 | 10 | 9
18 | O=C(NC(=S)Nc1ccc([N+](=O)[O-])cc1)c1cn(CCO)c2c(cc(O)c3ncccc32)c1=O | 4 | 9 | 10 | 10 | 12
19 | O=C(Nc1cccc([N+](=O)[O-])c1)c1cn(CCO)c2c(cc(O)c3ncccc32)c1=O | 2 | 8 | 7 | 10 | 8

Row | SMILES | zone of inhibition at 100 µg/mL (Candida albicans) [mm] | zone of inhibition at 100 µg/mL (Bacillus subtilis) [mm] | zone of inhibition at 100 µg/mL (Staphylococcus aureus) [mm] | zone of inhibition at 100 µg/mL (Pseudomonas aeruginosa) [mm] | zone of inhibition at 100 µg/mL (Escherichia coli) [mm]
20 | Cc1ccc(NS(=O)(=O)c2ccc(NC(=O)c3cn(CCO)c4c(cc(O)c5ncccc54)c3=O)cc2)cc1 | 0 | 6 | 5 | 0 | 5
21 | Cc1ccccc1NS(=O)(=O)c1ccc(NC(=O)c2cn(CCO)c3c(cc(O)c4ncccc43)c2=O)cc1 | 0 | 6 | 4 | 4 | 0
22 | O=C(Nc1cccc(Cl)c1)c1cn(CCO)c2c(cc(O)c3ncccc32)c1=O | 0 | 6 | 0 | 4 | 4
23 | COc1ccccc1NC(=S)NC(=O)c1cn(CCO)c2c(cc(O)c3ncccc32)c1=O | 0 | 0 | 4 | 4 | 0
24 | Cc1cccc(NC(=S)NC(=O)c2cn(CCO)c3c(cc(O)c4ncccc43)c2=O)c1 | 3 | 8 | 9 | 9 | 9
25 | COc1ccccc1NS(=O)(=O)c1ccc(NC(=O)c2cn(CCO)c3c(cc(O)c4ncccc43)c2=O)cc1 | 1 | 8 | 6 | 6 | 0
26 | COc1ccc(NC(=S)NC(=O)c2cn(CCO)c3c(cc(Cl)c4ncccc43)c2=O)cc1 | 2 | 9 | 8 | 6 | 8
27 | Cc1ccc(NC(=O)c2cn(CCO)c3c(cc(O)c4ncccc43)c2=O)cc1 | 3 | 8 | 9 | 9 | 10
28 | Cc1ccc(C)c(NS(=O)(=O)c2ccc(NC(=O)c3cn(CCO)c4c(cc(Cl)c5ncccc54)c3=O)cc2)c1 | 4 | 9 | 10 | 10 | 10
29 | O=C(NC(=S)Nc1ccccc1[N+](=O)[O-])c1cn(CCO)c2c(cc(O)c3ncccc32)c1=O | 1 | 5 | 0 | 4 | 5
30 | O=C(Nc1ccc(S(=O)(=O)Nc2cccc([N+](=O)[O-])c2)cc1)c1cn(CCO)c2c(cc(O)c3ncccc32)c1=O | 2 | 8 | 8 | 7 | 8
31 | Cc1cccc(NC(=O)c2cn(CCO)c3c(cc(O)c4ncccc43)c2=O)c1 | 1 | 6 | 5 | 6 | 0
32 | Cc1ccccc1NC(=S)NC(=O)c1cn(CCO)c2c(cc(O)c3ncccc32)c1=O | 0 | 7 | 5 | 0 | 6
33 | O=C(Nc1ccc(S(=O)(=O)Nc2cccc(Cl)c2)cc1)c1cn(CCO)c2c(cc(Cl)c3ncccc32)c1=O | 4 | 9 | 11 | 10 | 10
34 | O=C(NC(=S)Nc1cccc(Cl)c1)c1cn(CCO)c2c(cc(O)c3ncccc32)c1=O | 3 | 10 | 9 | 9 | 10
35 | Cc1ccc(NS(=O)(=O)c2ccc(NC(=O)c3cn(CCO)c4c(cc(Cl)c5ncccc54)c3=O)cc2)cc1 | 1 | 6 | 5 | 7 | 5
36 | COc1ccc(NC(=O)c2cn(CCO)c3c(cc(Cl)c4ncccc43)c2=O)cc1 | 2 | 6 | 6 | 6 | 0
37 | COc1ccc(NC(=O)c2cn(CCO)c3c(cc(O)c4ncccc43)c2=O)cc1 | 5 | 12 | 10 | 10 | 11
